Test results from US20250186532A1, “SHINE MUSCAT JELLY HAVING HIGH SENSORY APPEAL AND EXCELLENT ANTIOXIDANT AND ANTITHROMBOTIC ACTIVITIES, AND METHOD OF PREPARING SAME” (Andong National University Industry-Academic Cooperation …, priority 2023, published 2025).

Key:
thrombin = target: T1, thrombin (Homo sapiens, UniProt P00734); assay: Thrombin time (blood coagulation inhibitory activity); format: biochemical
T1 construct: 50 μl of 0.5 U thrombin (Sigma Co., USA); purchased Sigma Co., USA
Method: (§1) An antithrombotic activity was measured for the three types of jellies prepared in Example 3, and the results are shown in Table 5. At this time, the blood coagulation inhibitory activity evaluation method was in accordance with the previously reported method (Sohn et al., 2004. Kor. J. Pharmacogn 35. 52-61; Kwon et al., 2004. J. Life Science, 14. 509-513; Ryu et al. 2010. J. Life Science, 20. 922-928). Experiments were conducted to measure thrombin time, prothrombin time, and activated Partial Thromboplastin Time (aPTT). For plasma, commercially available control plasma (MD Pacific Technology Co., Ltd, Huayuan Industrial Area, China) was used. The thrombin time, prothrombin time, and aPTT measurements were performed as follows.
At a temperature of 37° C., 50 μl of 0.5 U thrombin (Sigma Co., USA), 50 μl of 20 mM CaCl2), and 10 μl of sample extracts of various concentrations were mixed in a tube of Amelung coagulometer KC-1A (Japan), and reacted for 2 minutes. Thereafter, 100 μl of plasma was added thereto. Afterward, the time until the plasma coagulated was measured. Aspirin (Sigma Co., USA) was used as a control. […] The thrombin inhibition effect was expressed as an average value of experiments repeated more than three times. A thrombin inhibitory activity was expressed as the coagulation time upon sample addition divided by the coagulation time upon the solvent control addition.

prothrombin = assay: Prothrombin time (blood coagulation inhibitory activity); format: biochemical
Method: as §1
At a temperature of 37° C., 70 μl of standard plasma (MD Pacific Co., China) and 10 μl of sample solutions of various concentrations were added into the tube of Amelung coagulometer KC-1A (Japan) and heated for 3 minutes. Thereafter, 130 μl of PT reagent was added thereto. Afterward, the time until the plasma coagulated was expressed as an average value of the experiments repeated three times. Aspirin (Sigma Co., USA) was used as a control. […] A prothrombin inhibitory activity was expressed as the coagulation time upon sample addition divided by the coagulation time upon the solvent control addition.

blood coagulation factor = assay: Activated Partial Thromboplastin Time (aPTT); format: biochemical
Method: as §1
Activated Partial Thromboplastin Time (aPTT)
At a temperature of 37° C., 100 μl of plasma and 10 μl of sample extracts of various concentrations were added to the tube of Amelung coagulometer KC-1A (Japan) and heated for 3 minutes. Thereafter, 50 μl of aPTT reagent (Sigma, ALEXIN™) was added thereto. […] Afterward, the time until the plasma coagulated was measured. […] The results of aPTT were expressed as an average value of three repeated experiments. A blood coagulation factor inhibitory activity was expressed as the aPTT upon sample addition divided by the aPTT upon the solvent control addition.

[1] = Nitrite scavenging ability (Griess reagent); conditions: 0.2 mg/ml; nitrite solution 1 mM, pH 1.2, 37° C., 1 hour
Method: To measure the nitrite scavenging ability, a sample solution was added to the nitrite solution (1 mM), and 0.1 N HCl was further added thereto to adjust the pH of the mixture to 1.2. Thereafter, the mixture was reacted at a temperature of 37° C. for 1 hour, and then Griess reagent (Sigma Co., USA) was added, and the resulting solution was mixed. After leaving the resulting solution at room temperature for 15 minutes, the amount of remaining nitrite was measured by measuring absorbance at a wavelength of 520 nm. The nitrite scavenging ability (%) was calculated using the following equation.

[2] = compared to the untreated group, aspirin at 1.5 mg/ml

Compound | Blood coagulation inhibitory activity, Thrombin time (thrombin; coagulation time upon sample addition / upon DMSO addition, control plasma, 37° C., aspirin 1.5 mg/ml, concentration not given for jellies) | extension of thrombin time (thrombin; [2]) [times] | Blood coagulation inhibitory activity, Prothrombin time (prothrombin; coagulation time upon sample addition / upon DMSO addition, standard plasma, 37° C., aspirin 1.5 mg/ml, concentration not given for jellies) | extension of prothrombin time (prothrombin; [2]) [times] | Blood coagulation inhibitory activity, aPTT (blood coagulation factor; aPTT upon sample addition / upon DMSO addition, plasma, 37° C., aspirin 1.5 mg/ml, concentration not given for jellies) | extension of aPTT (blood coagulation factor; [2]) [times] | Nitrite scavenging ability [1] [%]
CC(=O)Oc1ccccc1C(=O)O [Aspirin] | 1.26 ± 0.00 | 1.26 | 1.30 ± 0.02 | 1.30 | 1.33 ± 0.02 | 1.33 | 
O=C1O[C@H]([C@@H](O)CO)C(O)=C1O [Vitamin C] |  |  |  |  |  |  | 62.5 ± 0.1
